# US5565426A, “Peptide compounds active in cell adhesion processes” (Adir et Compagnie, priority 1992, dated 1996)
# Non-standard residues stand in square brackets, D forms with d. Residues, ends and D or L forms follow the SMILES beside them. GABA = NCCCC(=O)O
# Legend:
# [1] = tested on: mice (CD-1), collagen/adrenaline-induced thromboembolism; assay: Thromboembolism in mice (collagen + adrenaline i.v.); type: in vivo; conditions: for dose from which formation of microthrombi in the lungs is inhibited: histological examination of lungs; for dose that protects half of the mice: i.v., injected with collagen + adrenaline, death or paralysis at 15 min
# Protocol: Male mice (CD-1) weighing from 28 to 32 g are used for these experiments. The animals are maintained at from 26° to 28° C. for the 30 minutes preceding the experiment. A combination of collagen (150 μg/ml) and adrenaline (100 μmol/l) causes the mice to die by paralysis. Each mouse receives 0.1 ml of that combination, which gives a dose of 1.8 μg of adrenaline and 15 μg of collagen per mouse. The incidence of death or paralysis is observed 15 minutes after the intravenous injection (i.v.) of the combination (adrenaline+collagen) into the caudal vein. The peptides are injected at the same time as the combination of agonists. In the case of the tests relating to the duration of action, the mice are pre-treated with the peptides i.v. in a volume of 0.1 ml. A histological examination of the lungs is carried out in order to visualise the presence of microthrombi in the vessels of the microcirculation, which are attributable to the adrenaline-collagen combination. At the end of the experiment, the lungs are rapidly removed, fixed in formalin and then enclosed in paraffin. 5 μm sections are made and coloured with haematoxylin/eosin. The sections are examined and the presence or absence of microthrombi is noted. The X^2 test (Fischer) is used to determine whether there is a significant difference between the effects in mice that have received the peptides and those that have not.
# [2] = tested on: formation of a blood clot in the mesenteric artery of the rat; assay: Experimental thrombosis in the mesenteric artery of the rat; type: in vivo; conditions: venous infusion for 5 min
# Protocol: The experiments were carried out on male rats (250 to 400 g). The animals are anaesthetised with pentobarbitone (50 mg/kg i.p.). A catheter is installed in the jugular vein in order to permit i.v. injections.
# The preparation of the mesenteric artery and the induction of thrombosis are carried out in accordance with the method described by Bourgain et al. Adv. Exp. Med. Biol., 180, 635-649, (1984). A longitudinal incision is made in the abdomen and part of the intestine is exposed. Using a binocular magnifying device, a branch of the mesenteric artery from 200 to 500 μm in diameter is prepared. The adjacent vein is separated and the adipose tissues are removed; a 2 mm segment of artery is thus prepared. The animal is then installed under a microscope and the segment of the mesenteric artery is perfused with physiological solution (37° C.) at 5 ml/min. The segment can be observed for several hours. The images are recorded using a video camera and a magnetoscope.
# After installation and stabilisation of the preparation, a platinum electrode is placed on each side of the arteriole wall using a micromanipulator. An endothelial lesion is then induced by applying for 60 seconds an electric current of 40 μA, the current being reversed every 5 seconds. […] Normally, no thrombus formation is observed on applying the electric current.
# The formation of a clot is then induced by perfusion with ADP (adenosine diphosphate) for 2 minutes. The ADP is used at a final molarity of 300 μM. The clot forms and then, after 2 to 5 minutes, disappears by embolisation. The vessel then re-assumes a normal state; there is no spontaneous formation of a clot.
# The effect of the products on the formation of thrombi was tested by treating the animals by venous infusion for 5 minutes. The infusion starts […] minute before perfusion with ADP.
# The recorded images are analysed and the size of the clots is expressed in arbitrary surface values. The measurements are carried out at determined times during and after the perfusion of ADP. A comparison can therefore be made of the size of the clots in the control state and after the infusion of the product.
Structure (SMILES),dose from which formation of microthrombi in the lungs is inhibited [1] [mg/mouse],dose that protects half of the mice [1] [mg/mouse],times more active than the reference substance (RGDW) ([1]; ratio of doses protecting half of the mice) [times],Percentage inhibition of the formation of a blood clot in the mesenteric artery of the rat ([2]; 2 mg/kg/min) [%],Percentage inhibition of the formation of a blood clot in the mesenteric artery of the rat ([2]; 5 mg/kg/min) [%],Percentage inhibition of the formation of a blood clot in the mesenteric artery of the rat ([2]; 10 mg/kg/min) [%],"duration of action ([1]; dose of 1 mg, i.v. pre-treatment)"
"N=C(N)NCCC[C@H](NC(=O)CCCN)C(=O)NCC(=O)N[C@@H](CC(=O)O)C(=O)N[C@@H](Cc1c[nH]c2ccccc12)C(=O)O [Example 11, H2 N--(CH2)3 --CO--Arg--Gly--Asp--Trp--OH] (H-[GABA]RGDW-OH)",≥ 0.03,0.03,10,,,,
"NCCCC[C@H](NC(=O)CCCN)C(=O)NCC(=O)N[C@@H](CC(=O)O)C(=O)N[C@@H](Cc1c[nH]c2ccccc12)C(=O)O [Example 12, H2 N--(CH2)3 --CO--Lys--Gly--Asp--Trp--OH] (H-[GABA]KGDW-OH)",,,,17,33,56,
"N=C(N)NCCC[C@H](N)C(=O)NCC(=O)N[C@@H](CC(=O)O)C(=O)N[C@@H](Cc1c[nH]c2ccccc12)C(=O)O [H--Arg--Gly--Asp--Trp--OH, reference compound] (H-RGDW-OH)",≥ 1,0.3,,,,36,less than 5 minutes
